Assays:
[1] = test system: batrachotoxin (BTX) binding site of the sodium channel; test: Affinity to the batrachotoxin (BTX) binding site of the sodium channel; conditions: Table III; rat cerebrocortex synaptosomes; test concentration not given
5-HT transporter = target: T1, 5-HT transporter (Rattus norvegicus, UniProt P31652); test: Inhibition of 5-HT uptake in rat brain synaptosomes; format: biochemical; conditions: Table III, rat, 1 μM; for inhibition at 1 µM: read-out: Uptake 5-HT, % inhibition
T1 construct: synaptosomes of rat brain areas are freshly isolated; from tissue; host or cells: rat brain synaptosomes (P2 fraction) from marrow and pons
T1 sequence (P31652 whole entry): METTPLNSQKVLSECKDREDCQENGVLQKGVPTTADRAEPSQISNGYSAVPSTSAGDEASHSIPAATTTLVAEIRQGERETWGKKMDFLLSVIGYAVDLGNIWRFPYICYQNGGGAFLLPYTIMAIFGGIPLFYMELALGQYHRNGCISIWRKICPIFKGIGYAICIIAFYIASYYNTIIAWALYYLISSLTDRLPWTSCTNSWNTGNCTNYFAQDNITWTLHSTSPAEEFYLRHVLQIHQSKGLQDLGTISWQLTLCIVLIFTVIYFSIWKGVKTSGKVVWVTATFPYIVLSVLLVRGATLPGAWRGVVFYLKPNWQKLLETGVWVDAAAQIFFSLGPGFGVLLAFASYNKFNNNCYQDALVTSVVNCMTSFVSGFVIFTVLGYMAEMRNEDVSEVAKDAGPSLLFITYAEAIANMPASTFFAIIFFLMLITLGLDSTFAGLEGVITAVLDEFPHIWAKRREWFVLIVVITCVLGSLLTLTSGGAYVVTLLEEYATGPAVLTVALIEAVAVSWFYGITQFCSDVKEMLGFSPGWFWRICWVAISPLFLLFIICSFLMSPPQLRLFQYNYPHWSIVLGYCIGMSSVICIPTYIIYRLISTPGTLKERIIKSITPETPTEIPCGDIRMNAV

Row | Structure (SMILES) | inhibition at 1 µM (5-HT transporter) [%] | also measured
1 | CCCCC(CC)C(=O)N1CCC2(CC1)NCC(=O)N2CCOc1ccccc1 (centres unmarked) [Example 133, 8-(2-Ethylhexanoyl)-1-(2-phenoxyethyl)-1,4,8-triazaspiro[4,5]decan-2-one] | – | BTX inhibition [1]: 35
2 | CC(C)C1NC2(CCN(C(=O)C3COc4ccc(Cl)cc4C3)CC2)N(Cc2ccccc2C#N)C1=O (centres unmarked) [Example 245, 2-[8-(6-Chloro-2H-chroman-3-carbonyl)-3-isopropyl-2-oxo-1,4,8-triazaspiro[4,5]dec-1-ylmethyl]benzonitrile] | – | BTX inhibition [1]: 60
3 | CSCCC1NC2(CCN(C(=O)c3cccc(C)c3C)CC2)N(C)C1=O (centres unmarked) [Example 166, 8-(2,3-Dimethylbenzoyl)-1-methyl-3-(2-methylsulfanylethyl)-1,4,8-triazaspiro[4,5]decan-2-one] | – | BTX inhibition [1]: 47
4 | CCCCC(=O)N1CCC2(CC1)NCC(=O)N2Cc1cccc(C#N)c1 [Example 268, 3-(2-Oxo-8-pentanoyl-1,4,8-triazaspiro[4,5]dec-1-ylmethyl)benzonitrile] | – | BTX inhibition [1]: 31
5 | CC(C)CC1NC2(CCN(C(=O)CC3CCCC3)CC2)N(Cc2ccc(F)cc2)C1=O (centres unmarked) [Example 197, 8-(2-Cyclopentylacetyl)-1-(4-fluorobenzyl)-3-isobutyl-1,4,8-triazaspiro[4,5]decan-2-one] | – | BTX inhibition [1]: 41
6 | COC(=O)c1ccc(CN2C(=O)CNC23CCN(C(=O)c2snnc2C)CC3)cc1 [Example 258, Methyl 4-[8-(4-methyl[1,2,3]thiadiazole-5-carbonyl)-2-oxo-1,4,8-triazaspiro[4,5]dec-1-ylmethyl]benzoate] | – | BTX inhibition [1]: 32
7 | COc1ccc(CC(=O)N2CCC3(CC2)NC(CCSC)C(=O)N3Cc2ccc(F)cc2)cc1 (centres unmarked) [Example 215, 1-(4-Fluorobenzyl)-8-[2-(4-methoxyphenyl)acetyl]-3-(2-methylsulfanylethyl)-1,4,8-triazaspiro[4,5]decan-2-one] | – | BTX inhibition [1]: 32
8 | CSCCC1NC2(CCN(C(=O)c3cccc(N(C)C)c3)CC2)N(Cc2cc(C)cc(C)c2)C1=O (centres unmarked) [Example 137, 8-(3-Dimethylaminobenzoyl)-1-(3,5-dimethylbenzyl)-3-(2-methylsulfanylethyl)-1,4,8-triazaspiro[4,5]decan-2-one] | – | BTX inhibition [1]: 59
9 | CSCCC1NC2(CCN(C(=O)c3cccc(Cl)c3F)CC2)N(Cc2cc(C)cc(C)c2)C1=O (centres unmarked) [Example 156, 8-(3-Chloro-2-fluorobenzoyl)-1-(3,5-dimethylbenzyl)-3-(2-methylsulfanylethyl)-1,4,8-triazaspiro[4,5]decan-2-one] | – | BTX inhibition [1]: 60
10 | C=CCN1C(=O)C(C(C)C)NC12CCN(C(=O)c1ccccc1C)CC2 (centres unmarked) [Example 325, 1-Allyl-3-isopropyl-8-(2-methylbenzoyl)-1,4,8-triazaspiro[4,5]decan-2-one] | 32 | –
11 | Cn1nc(C(C)(C)C)cc1C(=O)N1CCC2(CC1)NCC(=O)N2Cc1ccccc1F [Example 313, 8-(5-tert-Butyl-2-methyl-2H-pyrazole-3-carbonyl)-1-(2-fluorobenzyl)-1,4,8-triazaspiro[4,5]decan-2-one] | 60 | –
12 | CN1C(=O)C(Cc2ccccc2)NC12CCN(C(=O)c1ccc(C(F)(F)F)c(F)c1)CC2 (centres unmarked) [Example 191, 3-Benzyl-8-(3-fluoro-4-trifluoromethylbenzoyl)-1-methyl-1,4,8-triazaspiro[4,5]decan-2-one] | 30 | –
13 | O=C1NC2(CCN(C(=O)c3ccccc3Cl)CC2)NC1Cc1ccccc1 (centres unmarked) [Example 84, 3-Benzyl-8-(2-chlorobenzoyl)-1,4,8-triazaspiro[4,5]decan-2-one] | 64 | –
14 | CCOc1ccccc1C(=O)N1CCC2(CC1)NC(CC(C)C)C(=O)N2CCCCOC(C)=O (centres unmarked) [Example 310, Butyl 4-[8-(2-ethoxybenzoyl)-3-isobutyl-2-oxo-1,4,8-triazaspiro[4,5]dec-1-yl]acetate] | – | Uptake 5-HT, rat, 1 μM, % inhibition (5-HT transporter): 48%
15 | COc1ccc(CC(=O)N2CCC3(CC2)NCC(=O)N3Cc2ccccc2F)cc1 [Example 320, 1-(2-Fluorobenzyl)-8-[2-(4-methoxyphenyl)acetyl]-1,4,8-triazaspiro[4,5]decan-2-one] | 38 | –
16 | COC(=O)c1ccc(CN2C(=O)CNC23CCN(C(=O)c2cccnc2SC)CC3)cc1 [Example 254, Methyl 4-[8-(2-methylsulfanylpyridin-3-carbonyl)-2-oxo-1,4,8-triazaspiro[4,5]dec-1-ylmethyl]benzoate] | 34 | –
17 | N#Cc1cccc(CN2C(=O)CNC23CCN(C(=O)c2ccccc2C(F)(F)F)CC3)c1 [Example 308, 3-[2-Oxo-8-(2-trifluoromethylbenzoyl)-1,4,8-triazaspiro[4,5]dec-1-ylmethyl]benzonitrile] | 59 | –
18 | COC(=O)c1ccc(CN2C(=O)CNC23CCN(C(=O)C2CCCCC2)CC3)cc1 [Example 286, Methyl 4-(8-cyclohexanecarbonyl-2-oxo-1,4,8-triazaspiro[4,5]dec-1-ylmethyl)benzoate] | 47 | –
19 | COc1cccc(C(=O)N2CCC3(CC2)NCC(=O)N3Cc2ccccc2F)c1 [Example 311, 1-(2-Fluorobenzyl)-8-(3-methoxybenzoyl)-1,4,8-triazaspiro[4,5]decan-2-one] | 49 | –
20 | Cc1cc(C(=O)N2CCC3(CC2)NC(=O)C(C(C)C)N3)ccc1Br (centres unmarked) [Example 130, 8-(4-Bromo-3-methylbenzoyl)-3-isopropyl-1,4,8-triazaspiro[4,5]decan-2-one] | 32 | –

The next lines start with results.

Row | inhibition at 1 µM (5-HT transporter) [%] | Structure (SMILES) | also measured
21 | 33 | CC(C)(C)CC(=O)N1CCC2(CC1)NC(=O)C(Cc1ccccc1)N2 (centres unmarked) [Example 110, 3-Benzyl-8-(3,3-dimethylbutyryl)-1,4,8-triazaspiro[4,5]decan-2-one] | –
22 | 47 | CCOC(=O)CC(=O)N1CCC2(CC1)NCC(=O)N2CCOc1ccccc1 [Example 74, Ethyl 3-oxo-3-[2-oxo-1-(2-phenoxyethyl)-1,4,8-triazaspiro[4,5]dec-8-yl]propionate] | –
23 | 63 | CCCCN1C(=O)C(Cc2ccccc2)NC12CCN(C(=O)c1ccco1)CC2 (centres unmarked) [Example 153, 3-Benzyl-1-butyl-8-(furan-2-carbonyl)-1,4,8-triazaspiro[4,5]decan-2-one] | –
24 | 53 | COCCOCC(=O)N1CCC2(CC1)NC(CCSC)C(=O)N2Cc1ccccc1C#N (centres unmarked) [Example 114, 2-[8-[2-(2-Methoxyethoxy)acetyl]-3-(2-methylsulfanylethyl)-2-oxo-1,4,8-triazaspiro[4,5]dec-1-ylmethyl]benzonitrile] | –
25 | 56 | CCCCN1C(=O)C(Cc2ccccc2)NC12CCN(C(=O)c1ccccn1)CC2 (centres unmarked) [Example 202, 3-Benzyl-1-butyl-8-(pyridin-2-carbonyl)-1,4,8-triazaspiro[4,5]decan-2-one] | –
26 | 46 | COc1ccc(C(=O)N2CCC3(CC2)NC(CCSC)C(=O)N3C)c(OC)c1 (centres unmarked) [Example 67, 8-(2,4-Dimethoxybenzoyl)-1-methyl-3-(2-methylsulfanylethyl)-1,4,8-triazaspiro[4,5]decan-2-one] | –
27 | 39 | CCCCN1C(=O)C(CCSC)NC12CCN(C(=O)CCCOc1ccccc1)CC2 (centres unmarked) [Example 161, 1-Butyl-3-(2-methylsulfanylethyl)-8-(4-phenoxybutyryl)-1,4,8-triazaspiro[4,5]decan-2-one] | –
28 | 51 | COC(=O)c1ccc(CN2C(=O)CNC23CCN(C(=O)Cc2ccccc2)CC3)cc1 [Example 283, Methyl 4-(2-oxo-8-phenylacetyl-1,4,8-triazaspiro[4,5]dec-1-ylmethyl)benzoate] | –
29 | 39 | C=CCN1C(=O)C(CCSC)NC12CCN(C(=O)C(=O)OCC)CC2 (centres unmarked) [Example 261, Ethyl 2-[1-allyl-3-(2-methylsulfanylethyl)-2-oxo-1,4,8-triazaspiro[4,5]dec-8-yl]-2-oxo-acetate] | –
30 | 30 | CCCCN1C(=O)C(CCSC)NC12CCN(C(=O)c1cc(C)oc1C)CC2 (centres unmarked) [Example 219, 1-Butyl-8-(2,5-dimethylfuran-3-carbonyl)-3-(2-methylsulfanylethyl)-1,4,8-triazaspiro[4,5]decan-2-one] | –
31 | 46 | CCCCN1C(=O)C(Cc2ccccc2)NC12CCN(C(=O)c1snnc1C)CC2 (centres unmarked) [Example 243, 3-Benzyl-1-butyl-8-(4-methyl[1,2,3]thiadiazole-5-carbonyl)-1,4,8-triazaspiro[4,5]decan-2-one] | –
32 | 47 | CSCCC1NC2(CCN(C(=O)c3cccc4ccccc34)CC2)N(C)C1=O (centres unmarked) [Example 187, 1-Methyl-3-(2-methylsulfanylethyl)-8-(naphthalin-1-carbonyl)-1,4,8-triazaspiro[4,5]decan-2-one] | –
33 | 62 | CSCCC1NC2(CCN(C(=O)c3cccnc3Oc3ccccc3)CC2)N(Cc2ccccc2)C1=O (centres unmarked) [Example 171, 1-Benzyl-3-(2-methylsulfanylethyl)-8-(2-phenoxypyridin-3-carbonyl)-1,4,8-triazaspiro[4,5]decan-2-one] | –
34 | 43 | CCCCN1C(=O)C(Cc2ccccc2)NC12CCN(C(=O)COC)CC2 (centres unmarked) [Example 190, 3-Benzyl-1-butyl-8-(2-methoxyacetyl)-1,4,8-triazaspiro[4,5]decan-2-one] | –
35 | 40 | CCCCN1C(=O)C(CCSC)NC12CCN(C(=O)COCc1ccccc1)CC2 (centres unmarked) [Example 159, 8-(2-Benzyloxyacetyl)-1-butyl-3-(2-methylsulfanylethyl)-1,4,8-triazaspiro[4,5]decan-2-one] | –
36 | 43 | C#CCN1C(=O)C(Cc2ccccc2)NC12CCN(C(=O)COC)CC2 (centres unmarked) [Example 81, 3-Benzyl-8-(2-methoxyacetyl)-1-prop-2-ynyl-1,4,8-triazaspiro[4,5]decan-2-one] | –
37 | 31 | CSCCC1NC2(CCN(C(=O)c3c(F)ccc(C)c3F)CC2)N(C)C1=O (centres unmarked) [Example 231, 8-(2,6-Difluoro-3-methylbenzoyl)-1-methyl-3-(2-methylsulfanylethyl)-1,4,8-triazaspiro[4,5]decan-2-one] | –
38 | 30 | Cc1ccc(Cl)c(C(=O)N2CCC3(CC2)NC(Cc2ccccc2)C(=O)N3C)c1F (centres unmarked) [Example 224, 3-Benzyl-8-(6-chloro-2-fluoro-3-methylbenzoyl)-1-methyl-1,4,8-triazaspiro[4,5]decan-2-one] | –
